According to patent publication US5599926:

Conditions: from C=CCOc1ccc(C[C@H](N)C(=O)NCc2cc(CSc3cc(SCc4cc(CNC(=O)[C@@H](N)Cc5ccc(OCC=C)cc5)cc(C(=O)Oc5c(F)c(F)c(F)c(F)c5F)c4)cc(SCc4cc(CNC(=O)[C@@H](N)Cc5ccc(OCC=C)cc5)cc(C(=O)Oc5c(F)c(F)c(F)c(F)c5F)c4)c3)cc(C(=O)Oc3c(F)c(F)c(F)c(F)c3F)c2)cc1; amide bond; N,N-diisopropylethylamine (pentafluorophenyl ester); THF; 2.3 mM; 25.0 °C; 45.0 h

C=CCOc1ccc(C[C@@H]2NC(=O)c3cc4cc(c3)CSc3cc5cc(c3)SCc3cc(cc(c3)C(=O)N[C@@H](Cc3ccc(OCC=C)cc3)C(=O)NC4)CNC(=O)[C@H](Cc3ccc(OCC=C)cc3)NC(=O)c3cc(cc(c3)CS5)CNC2=O)cc1
ring closure, yield of all isomers: 65%
